Two molecules from patent US20220288020A1, “METHOD OF TREATING NEOPLASTIC DISEASES WITH A CDC42-SPECIFIC INHIBITOR” (Children's Hospital Medical Center, priority 2019, published 2022) can be followed below.

For experiment [1], the system named is Splenic CD4+ YFP+ Tregs from Cdc42+/- mice. Briefly: Stability of Cdc42+/- Tregs cultured with or without acetazolamide (flow cytometry, IFN-γ+ cells). The following applies: Splenic CD4+ YFP+ Tregs from Cdc42+/- mice cultured with AZA; FIG. 3E. It counts as cell-based, mouse. The protocol:
(§1) FIG. 3. […] (A, B) Treg-specific heterozygous deletion of Cdc42 upregulates CAI and alkalizes extracellular pH of Tregs. Splenic CD4^+ YFP^+ Tregs were flow-sorted from WT and Cdc42^+/− mice. CAI expression was detected by Q-PCR (A). Another aliquot of the cells were cultured with Anti-CD3/CD28 and IL-2 for 36 hrs. pH of the culture medium (pHe) was measured by a pH meter. (C, D) Extracellular alkalization destabilizes Tregs. Splenic CD4^+ YFP^+ Tregs from WT mice were cultured as described in B, with regular medium of pH 7.4 or medium of pH 7.56 (C). Alternatively, the cells were cultured with conditional medium (CM) from WT Treg culture or from Cdc42^+/− Treg culture (D). Percentages of IFN-γ^+ cells within Tregs (left) and non-Tregs (right) were analyzed by flow cytometry. (E) Inhibition of CAI by acetazolamide (AZA) rescues instability of Cdc42^+/− Tregs. […] Percentages of IFN-γ^+ cells within Tregs (left) and non-Tregs (right) were analyzed by flow cytometry. […] Three days after starting AZA injection, the mice were inoculated (s.c.) with MC38 (8×10^5) and tumor volume was recorded. n=4-7. […]
(§2) Cdc42^fl/+Foxp3^YFP-Cre and Cdc42^+/+Foxp3^YFP-Cre mice were inoculated (s.c.) with MC38 mouse colon cancer cells (8×10^5) or KPC mouse pancreatic cancer cells (8×10^5). Tumor volume was monitored. […] Quantitative real-time RT-PCR (Q-PCR) confirmed the upregulation of CAI in Cdc42^+/− Tregs (FIG. 3A). […]

In experiment [2] the test system is MC38 mouse colon cancer cells. Briefly: MC38 tumor growth in Cdc42+/- mice treated with AZA. It counts as in vivo. The following applies: AZA 40 mg/kg i.p. once a day, started three days before MC38 (8×10^5) s.c.; vs Cdc42+/- + vehicle; FIG. 3F. The procedure:
as §1, §2

Experiment [3] relates to MC38 mouse colon cancer cells. Briefly: Prophylactic CASIN treatment, syngeneic MC38 tumor model in C57BL/6 mice. It counts as in vivo. The protocol:
FIG. 4. Prophylactic CASIN causes anti-tumor immunity. C57BL/6 mice were injected (i.p.) with vehicle or 30 mg/kg body weight of CASIN twice a day for one week and then 40 mg/kg body weight of CASIN once a day until the end of the experiment. One day after the first CASIN treatment, the mice were injected (s.c.) with MC38 (8×10^5). Tumor growth was monitored (A). Upon euthanasia, tumors were dissected and the expression of IFN-γ^+, IL-4^+ and/or IL-17^+ within CD4^+Foxp3^+ (B), CD4^+Foxp3^− (C), and CD8^+ (D) cells was analyzed by flow cytometry. n=7. Error bars indicate SD. **p<0.01; *p<0.05. In FIGS. 4(A)-(D), data for vehicle administration is the top line (furthest from the x-axis) in FIG. 4A and left side of each data representation in FIGS. 4(B)-(D); and data for CASIN administration is the bottom line (closest to the x-axis) in FIG. 4(A) and right side of each data representation in FIGS. 4(B)-(D).
(§3) The Cdc42 conditional knockout mice and CASIN were developed in CCHMC by Dr. Yi Zheng lab (Yang L, Wang L, Zheng Y. Gene targeting of Cdc42 and Cdc42GAP affirms the critical involvement of Cdc42 in filopodia induction, directed migration, and proliferation in primary mouse embryonic fibroblasts. Mol Biol Cell. 2006 November; 17(11):4675-85) (Liu W, Du W, Shang X, Wang L, Evelyn C, Florian M C, A Ryan M, Rayes A, Zhao X, Setchell K, Meller J, Guo F, Nassar N, Geiger H, Pang Q, Zheng Y. Rational identification of a Cdc42 inhibitor presents a new regimen for long-term hematopoietic stem cell mobilization. Leukemia. 2019 March; 33(3):749-761). In the examples below, the effects of Cdc42 deletion and CASIN on T-cell immunity against tumor growth of colorectal cancer cells and/or pancreatic cancer cells was evaluated. […]
C57BL/6 mice were injected (i.p.) with vehicle or 30 mg/kg body weight of CASIN twice a day for one week and then 40 mg/kg body weight of CASIN once a day until the end of the experiment. […] Tumor growth was monitored. […]

The test system of experiment [4] is MC38 mouse colon cancer cells. Kind of experiment: Therapeutic CASIN treatment upon tumor onset, MC38 tumor model in C57BL/6 mice, with or without Anti-CD4/CD8 T-cell depletion. It counts as in vivo. The procedure:
FIG. 5. Therapeutic CASIN treatment causes anti-tumor T-cell immunity. C57BL/6 mice were inoculated (s.c.) with MC38 (8×10^5) at day 1 and injected (i.p.) with Anti-CD4/CD8 neutralizing antibodies (5 mg/kg body weight for each antibody) or isotype control antibody once every 4 days starting at day 1. Starting from day 10 when tumor onset was observed, the mice were treated with vehicle or CASIN as described for FIG. 4 above. Tumor volume was monitored (A). At day 14, depletion of T-cells in peripheral blood from the mice treated with Anti-CD4/CD8 neutralizing antibodies was confirmed by flow cytometry (data not shown). Upon euthanasia, tumors were dissected from isotype control antibody-treated mice. The expression of IFN-γ^+ and IL-17^+ in CD4^+Foxp3^+ cells was analyzed by flow cytometry (B). CD3^+ T-cells were visualized by immunohistochemistry using anti-CD3 antibody (C). The expression of IFN-γ^+ and/or IL-17^+ in CD4^+Foxp3^− (D) and CD8^+ cells (E) was analyzed by flow cytometry. n=5. Error bars indicate SD. **p<0.01; *p<0.05. […]
as §3, with “Leukemia. 2019 March; 33(3):749-761).” left out
C57BL/6 mice were injected (s.c.) with MC38 (8×10^5) at day 1 and injected (i.p.) with Anti-CD4/CD8 neutralizing antibodies (5 mg/kg body weight for each antibody) or isotype control antibody once every 4 days starting at day 1. […] Tumor volume was monitored. […]

`CC(=O)Nc1nnc(S(N)(=O)=O)s1` [acetazolamide]: the “instability of Cdc42+/- Tregs (percentages of IFN-γ+ cells within Tregs)” value in experiment [1] was “rescued the instability”. The “tumor growth (tumor volume) in Cdc42+/- mice” value in experiment [2] was “restores tumor growth”.

For `OCCNC1CCCc2c1[nH]c1ccc(-c3ccccc3)cc21` (centres unmarked) [CASIN], the tumor growth result in experiment [3] (CASIN i.p. 30 mg/kg twice a day for one week then 40 mg/kg once a day, started one day before MC38 s.c., vs vehicle, FIG. 4A) is “suppressing tumor growth”. In experiment [3] (prophylactic CASIN, dissected tumors, flow cytometry, FIG. 4B), the “Treg stability (IFN-γ+, IL-4+, IL-17+ within tumor CD4+Foxp3+ cells)” value is “destabilizing Tregs”. Further, the “effector T cells (tumor CD4+Foxp3- and CD8+ cells)” value in experiment [3] (prophylactic CASIN, dissected tumors, flow cytometry, FIG. 4C, D) is on record as “increasing effector T cells”. Further, the “tumor growth (tumor volume)” value in experiment [4] (CASIN i.p. 30 mg/kg twice a day for one week then 40 mg/kg once a day from day 10 (tumor onset), isotype control antibody, FIG. 5A) is “inhibited tumor growth”. Besides, the “Treg stability (IFN-γ+ and IL-17+ in tumor CD4+Foxp3+ cells)” value in experiment [4] (therapeutic CASIN, dissected tumors, flow cytometry, FIG. 5B) is reported as “Treg instability”. In addition, the “effector T-cells (CD3+ T-cells, IFN-γ-producing CD4+Foxp3- and CD8+ cells) in tumors” value in experiment [4] (therapeutic CASIN, immunohistochemistry and flow cytometry, FIG. 5C-E) is listed as “increased effector T-cells”.
